pIC50: −log10 of the molar value.
Tests used:
[1] = system: ZR-75-1 cells; test: ZR-75-1 cell proliferation assay (CellTiter-Glo); assay type: cell-based; settings: Homo sapiens, ZR-75-1, 240 h, total culture period of 10 days, read-out: ZR-75-1 Proliferation Inhibition IC50
Outline: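 ZR-75-1 cells were exposed to compound for 10 days in total at 37°C and 5% CO2, being trypsinized, counted and re-seeded every 5 days, with fresh compound added after each re-seeding. Viability was read by CellTiter-Glo luminescence, and IC50 was derived from a four-parameter logistic fit.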

[2] = system: human breast cancer ZR-75-1 cell xenografts; test: In vivo efficacy study in BALB/c nude mouse model with subcutaneous ZR-75-1 xenografts; settings: for T/C / TGI / Tumor Volume: 0.3 mg/kg; for T/C / TGI: based on tumor volume on day 21 post-administration; for Tumor Volume: day 21 post-administration, female BALB/c nude mice, 7 per group; for anti-tumor effects: ZR-75-1 xenograft model, tumor growth curves FIG. 2, result in words
From the text: IV. In vivo efficacy study of test drug Compound 2, Compound 5-P2, Compound 3, and Compound A in a BALB/c nude mouse model with subcutaneously implanted human breast cancer ZR-75-1 cell xenografts
The objective of this experiment is to evaluate the in vivo efficacy of the test drug Compound 2, Compound 5-P2, Compound 3, and Compound A in a BALB/c nude mouse model with subcutaneously implanted human breast cancer ZR-75-1 cell xenografts.
• Species: Mouse; • Strain: BALB/c nude mice; • Age and weight: 6-8 weeks old, weighing 19-26 grams; • Gender: Female; • Supplier: GemPharmatech Co., Ltd.; • Compound source: Compound A: [drawing 190] prepared with reference to patent CN114364672A.
Human breast cancer ZR-75-1 (ATCC, CRL-1500) cells were cultured in vitro as adherent cultures. The culture conditions were: 1640 medium supplemented with 10 vol% FBS, 100 U/mL penicillin, and 100 µg/mL streptomycin, incubated in a 37°C, 5% CO2 cell culture incubator. Routine passaging was performed twice a week. When cell confluence reached 80%-90% and the cell number met the requirements, cells were harvested, counted, and inoculated.
Three days before cell implantation, a 17β-estrogen pellet (0.36 mg) was implanted into the left dorsal side of each mouse. Starting one week after pellet implantation, animals were urinated 2-3 times per week. If necessary, animals were urinated daily.
A mixture containing 10×10^6 ZR-75-1 cells in 100 µL PBS and 100 µL Matrigel (final volume was 200 µL) was subcutaneously implanted into the right dorsal side (upper side) of each mouse. On day 18 after cell implantation, when the average tumor volume reached 138 mm^3, grouping and administration were initiated. Mice with tumor volumes ranging from 100 to 212 mm^3 were selected for the study. Mice were randomly assigned to groups based on body weight and tumor volume, with 7 mice per group. The day of grouping was designated as PG-D0, and administration for all groups started from PG-D0.
The experimental index is to investigate whether tumor growth is inhibited, delayed, or cured. Tumor diameters were measured three times per week using a vernier caliper. Tumor volume was calculated using the formula: V = 0.5a × b^2, where a and b represent the major and minor diameters of the tumor, respectively.
The anti-tumor efficacy of the compounds was evaluated using TGI (%) or the relative tumor proliferation rate T/C (%). TGI (%), reflects the tumor growth inhibition rate. TGI (%) was calculated as: TGI (%) = [1 - (Mean tumor volume of a treatment group at the end of administration - Mean tumor volume of the same treatment group at the start of administration) / (Mean tumor volume of the vehicle control group at the end of treatment - Mean tumor volume of the vehicle control group at the start of treatment)] × 100%.
Relative Tumor Proliferation Rate T/C (%): The calculation formula is as follows: T/C% = TRTV / CRTV ×100 % (TRTV: RTV of the treatment group; CRTV: RTV of the negative control group). The relative tumor volume (RTV) was calculated based on tumor measurement results using the formula RTV = Vt /V0, where V0 is the tumor volume of each mouse measured at the start of grouping and administration (i.e., d0), and Vt is the tumor volume of each mouse at a specific measurement time. The mean value for each group was then calculated. V0 and Vt correspond to tumor volume data from the same mouse.

[3] = biological target: T1, KAT6B (Homo sapiens, UniProt Q8WYB5); test: KATs acetyltransferase enzyme activity assay (TR-FRET), KAT6B; assay type: biochemical; settings: Biotin-H3 (1-21) and AcCOA, 90 minutes at room temperature
T1 construct: purchased Active Motif 81224
T1 sequence (Q8WYB5 whole entry): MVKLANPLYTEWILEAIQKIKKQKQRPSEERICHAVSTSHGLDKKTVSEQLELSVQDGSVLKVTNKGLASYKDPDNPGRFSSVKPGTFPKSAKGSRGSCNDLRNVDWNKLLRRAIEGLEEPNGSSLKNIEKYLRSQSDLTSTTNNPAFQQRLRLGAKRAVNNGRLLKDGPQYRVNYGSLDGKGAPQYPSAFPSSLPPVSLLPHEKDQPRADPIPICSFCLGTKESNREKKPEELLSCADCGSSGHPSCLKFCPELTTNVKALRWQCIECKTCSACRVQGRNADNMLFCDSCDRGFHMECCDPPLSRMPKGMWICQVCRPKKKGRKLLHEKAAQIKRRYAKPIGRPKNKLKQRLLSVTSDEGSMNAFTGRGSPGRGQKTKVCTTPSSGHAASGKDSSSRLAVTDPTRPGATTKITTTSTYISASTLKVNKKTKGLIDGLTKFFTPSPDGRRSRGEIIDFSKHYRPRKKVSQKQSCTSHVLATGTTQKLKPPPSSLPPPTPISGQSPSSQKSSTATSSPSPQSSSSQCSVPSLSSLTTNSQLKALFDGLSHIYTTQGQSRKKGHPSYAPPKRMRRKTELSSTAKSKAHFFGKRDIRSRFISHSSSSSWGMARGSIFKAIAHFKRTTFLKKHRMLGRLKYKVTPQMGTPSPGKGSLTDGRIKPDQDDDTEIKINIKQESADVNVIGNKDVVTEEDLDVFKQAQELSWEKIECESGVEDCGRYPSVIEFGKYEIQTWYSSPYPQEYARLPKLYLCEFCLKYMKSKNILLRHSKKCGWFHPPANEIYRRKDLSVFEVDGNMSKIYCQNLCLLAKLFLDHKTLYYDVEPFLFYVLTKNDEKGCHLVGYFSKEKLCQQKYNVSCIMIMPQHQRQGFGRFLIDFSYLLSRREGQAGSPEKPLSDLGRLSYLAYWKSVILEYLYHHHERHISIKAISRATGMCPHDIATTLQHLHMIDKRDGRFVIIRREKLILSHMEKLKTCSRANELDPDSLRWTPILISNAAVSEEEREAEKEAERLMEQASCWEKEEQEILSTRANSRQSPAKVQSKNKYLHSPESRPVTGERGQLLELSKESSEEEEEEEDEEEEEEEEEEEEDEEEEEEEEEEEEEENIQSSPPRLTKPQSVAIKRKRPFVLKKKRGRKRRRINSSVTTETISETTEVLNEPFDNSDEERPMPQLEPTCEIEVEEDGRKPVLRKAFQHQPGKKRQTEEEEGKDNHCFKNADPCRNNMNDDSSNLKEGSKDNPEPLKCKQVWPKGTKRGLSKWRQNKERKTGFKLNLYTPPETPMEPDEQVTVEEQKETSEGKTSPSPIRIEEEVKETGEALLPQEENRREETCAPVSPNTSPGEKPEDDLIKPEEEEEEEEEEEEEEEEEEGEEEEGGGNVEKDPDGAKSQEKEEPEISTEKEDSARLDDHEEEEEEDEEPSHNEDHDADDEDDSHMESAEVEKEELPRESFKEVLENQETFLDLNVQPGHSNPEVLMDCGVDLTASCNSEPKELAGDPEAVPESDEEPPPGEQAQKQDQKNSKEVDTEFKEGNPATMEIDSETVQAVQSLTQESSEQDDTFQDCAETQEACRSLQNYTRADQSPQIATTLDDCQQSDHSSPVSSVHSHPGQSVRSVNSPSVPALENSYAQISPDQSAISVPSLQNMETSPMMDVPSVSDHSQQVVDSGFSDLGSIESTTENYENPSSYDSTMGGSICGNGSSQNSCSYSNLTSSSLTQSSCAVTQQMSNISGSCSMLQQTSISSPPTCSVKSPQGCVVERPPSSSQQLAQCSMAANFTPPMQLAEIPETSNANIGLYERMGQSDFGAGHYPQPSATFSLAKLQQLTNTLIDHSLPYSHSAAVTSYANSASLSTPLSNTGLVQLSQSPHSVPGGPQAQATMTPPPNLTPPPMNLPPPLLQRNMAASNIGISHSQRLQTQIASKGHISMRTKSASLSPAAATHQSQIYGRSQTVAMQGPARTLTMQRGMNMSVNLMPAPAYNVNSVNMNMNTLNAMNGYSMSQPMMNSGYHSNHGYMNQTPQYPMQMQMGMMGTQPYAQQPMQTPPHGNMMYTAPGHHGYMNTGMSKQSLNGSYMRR
Outline: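 TR-FRET assay in Tris-HCl buffer: enzyme preincubated with compound 15 min at room temperature, then biotin-H3(1-21) peptide and acetyl-CoA added for 90 min at room temperature. Acetylation detected with Eu-anti-acetyl-histone H4 lysine antibody and ULight-streptavidin (60 min), 665/620 nm ratio; IC50 from four-parameter logistic fit.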

Row | Compound | pIC50 [1] | T/C [2] [%] | TGI [2] [%] | Tumor Volume [2] [mm^3] | anti-tumor effects [2] | pIC50 [3]
1 | COc1ccc2c(c1S(=O)(=O)Nc1noc3cc(Cn4cccn4)cc(OC)c13)OCCCO2 [Compound 2, N-(6-((1H-Pyrazol-1-yl)methyl)-4-methoxybenzo[d]isoxazol-3-yl)-7-methoxy-3,4-dihyd ro-2H-benzo[b][1,4]dioxepine-6-sulfonamide] | 8.49 | 20.83 | 93.97 | 182 ± 39 | more significant anti-tumor effects compared to Compound A | 7.60
2 | COc1ccc2c(c1S(=O)(=O)Nc1noc3cc(Cn4cccn4)cc(OC)c13)OC[C@@H]1C[C@H]21 [Compound 5-P2, (1aR,7bS)-N-(6-((1H-Pyrazol-1-yl)methyl)-4-methoxybenzo[d]isoxazol-3-yl)-5-methoxy-1,1a,2,7b-tetrahydrocyclopropa[c]chromene-4-sulfonamide] | 10.00 | 12.10 | 105.10 | 102 ± 14 | more significant anti-tumor effects compared to Compound A | 8.80
